Peptide text beside a SMILES is read from it.
tested on: 3T3-L1 Adipocytes; assay: Free fatty acid levels in cultured mouse 3T3-L1 adipocytes, isoproterenol stimulated (Example 2); assay type: cell-based; settings: test peptides 25 μM; isoproterenol 1 nM
Description: Mouse 3T3-L1 cells were seeded at a density between 1,000-20,000 cells per well on 96-well, 48-well, or 24-well plates in Pre-adipocyte Medium (Zen-Bio, Durham, N.C.) and grown to confluence at 37° C. in a humidified atmosphere of 5% CO2/95% air. Two days after confluence, cells were placed in Adipocyte Differentiation Medium (Zen-Bio, Durham, N.C.) and cultured for three additional days at 37° C. in a humidified atmosphere of 5% CO2/95% air. The culture media was then replaced with Adipocyte Maintenance Medium (Zen-Bio) and the cells were maintained for an additional 9-14 days at 37° C. in a humidified atmosphere of 5% CO2/95% air with partial medium replacement every other day. Following 12-17 days of differentiation, test peptides were added at a final concentration of 25 μM and incubated for 18-20 hours in Adipocyte Maintenance Medium at 37° C. in a humidified atmosphere of 5% CO2/95%. After 18-20 hours, the media was exchanged with fresh Adipocyte Maintenance Medium containing test peptides and incubated for 1 h at 37° C. in a humidified atmosphere of 5% CO2/95%. After 1 h media was exchanged with Assay Buffer (Zen-Bio) containing isoproterenol (1 nM) (added to all samples except untreated controls) and the test peptides. Cells were incubated for a further 3 hours at 37° C. in a humidified atmosphere of 5% CO2/95%. Free fatty acid concentrations in the media were determined using a Free Fatty Acid Assay Kit (Zen-Bio) according to the manufacturer's instructions using a plate reader (540 nm).
Absorbance values were corrected for untreated background and expressed relative to isoproterenol treated cells. Treatment with isoproterenol (1 nM) alone was used as the free fatty acid level stimulatory control. The relative standard deviation of the isoproterenol control was <10%. […] Free fatty acid levels for insulin (100 nM) treatment were <5% of the isoproterenol control value.

Compound | Free Fatty Acid Levels in 3T3-L1 Adipocytes Expressed as a Percent of Isoproterenol Control: Percent of Control Value [%]
CC[C@H](C)[C@H](NC(=O)[C@H](Cc1ccc(O)cc1)NC(=O)CNC(=O)[C@H](CCC(=O)O)NC(=O)[C@H](CCC(=O)O)NC(=O)[C@H](CCC(N)=O)NC(=O)[C@H](Cc1c[nH]c2ccccc12)NC(=O)[C@H](CCCNC(=N)N)NC(=O)[C@@H](C)N)C(=O)N[C@@H](Cc1ccccc1)C(=O)N[C@@H](Cc1ccc(O)cc1)C(=O)N1CCC[C@H]1C(=O)N[C@@H](CCCNC(=N)N)C(=O)O [compound 232] (HELM PEPTIDE1{[dA].R.W.Q.E.E.G.Y.I.F.Y.P.R}$$$$V2.0) | 46.5
H-MRWQEMGEIFYPRKLR-OH [compound 174] | 38.8
H-MRWQEMGYIFYPRELR-OH [compound 180] | 47.0
CC[C@H](C)[C@H](NC(=O)[C@H](Cc1ccc(O)cc1)NC(=O)CNC(=O)[C@H](C)NC(=O)[C@H](CCC(=O)O)NC(=O)[C@H](CCC(N)=O)NC(=O)[C@H](Cc1c[nH]c2ccccc12)NC(=O)[C@H](CCCNC(=N)N)NC(=O)[C@@H](C)N)C(=O)N[C@@H](Cc1ccccc1)C(=O)N[C@@H](CCC(=O)O)C(=O)N1CCC[C@H]1C(=O)N[C@@H](CCCNC(=N)N)C(=O)N[C@@H](CCCCN)C(=O)N[C@@H](CC(C)C)C(=O)N[C@H](C)C(=O)O [compound 243] (HELM PEPTIDE1{[dA].R.W.Q.E.A.G.Y.I.F.E.P.R.K.L.[dA]}$$$$V2.0) | 82.3
Ac-LRWQEMGYIFYPLRKR-NH2 [compound 109] | 76.6
CC[C@H](C)[C@H](NC(=O)[C@H](Cc1ccc(O)cc1)NC(=O)CNC(=O)[C@H](CCSC)NC(=O)[C@@H](C)NC(=O)[C@H](CCC(N)=O)NC(=O)[C@H](Cc1c[nH]c2ccccc12)NC(=O)[C@H](CCCNC(=N)N)NC(=O)[C@@H](N)CCSC)C(=O)N[C@@H](Cc1ccccc1)C(=O)N[C@@H](Cc1ccc(O)cc1)C(=O)N1CCC[C@H]1C(=O)N[C@@H](CCCNC(=N)N)C(=O)N[C@@H](CCCCN)C(=O)N[C@@H](CC(C)C)C(=O)N[C@@H](CCCNC(=N)N)C(=O)O [compound 140] (HELM PEPTIDE1{M.R.W.Q.[dA].M.G.Y.I.F.Y.P.R.K.L.R}$$$$V2.0) | 60.8
CC[C@H](C)[C@H](NC(=O)[C@@H](C)NC(=O)CNC(=O)[C@H](CCSC)NC(=O)[C@H](CCC(=O)O)NC(=O)[C@H](CCC(N)=O)NC(=O)[C@H](Cc1c[nH]c2ccccc12)NC(=O)[C@H](CCCNC(=N)N)NC(=O)[C@@H](N)CCSC)C(=O)N[C@@H](Cc1ccccc1)C(=O)N[C@@H](Cc1ccc(O)cc1)C(=O)N1CCC[C@H]1C(=O)N[C@@H](CCCNC(=N)N)C(=O)N[C@@H](CCCCN)C(=O)N[C@@H](CC(C)C)C(=O)N[C@@H](CCCNC(=N)N)C(=O)O [compound 143] (HELM PEPTIDE1{M.R.W.Q.E.M.G.[dA].I.F.Y.P.R.K.L.R}$$$$V2.0) | 64.5
H-MREQEMGYIFYPRKLR-OH [compound 170] | 48.0
CC[C@H](C)[C@H](NC(=O)[C@H](Cc1ccc(O)cc1)NC(=O)CNC(=O)[C@H](CCSC)NC(=O)[C@H](CCC(=O)O)NC(=O)[C@H](CCC(N)=O)NC(=O)[C@@H](C)NC(=O)[C@H](CCCNC(=N)N)NC(=O)[C@@H](N)CCSC)C(=O)N[C@@H](Cc1ccccc1)C(=O)N[C@@H](Cc1ccc(O)cc1)C(=O)N1CCC[C@H]1C(=O)N[C@@H](CCCNC(=N)N)C(=O)N[C@@H](CCCCN)C(=O)N[C@@H](CC(C)C)C(=O)N[C@@H](CCCNC(=N)N)C(=O)O [compound 138] (HELM PEPTIDE1{M.R.[dA].Q.E.M.G.Y.I.F.Y.P.R.K.L.R}$$$$V2.0) | 71.5
H-MRWQEMGYIFYERKLR-OH [compound 178] | 67.6
CC[C@H](C)[C@H](NC(=O)[C@H](Cc1ccc(O)cc1)NC(=O)CNC(=O)[C@H](CCSC)NC(=O)[C@H](CCC(=O)O)NC(=O)[C@H](CCC(N)=O)NC(=O)[C@H](Cc1c[nH]c2ccccc12)NC(=O)[C@H](CCCNC(=N)N)NC(=O)[C@@H](N)CCSC)C(=O)N[C@@H](Cc1ccccc1)C(=O)N[C@@H](Cc1ccc(O)cc1)C(=O)N1CCC[C@H]1C(=O)N[C@@H](CCCNC(=N)N)C(=O)N[C@@H](CCCCN)C(=O)N[C@H](C)C(=O)N[C@@H](CCCNC(=N)N)C(=O)O [compound 150] (HELM PEPTIDE1{M.R.W.Q.E.M.G.Y.I.F.Y.P.R.K.[dA].R}$$$$V2.0) | 53.9
CC[C@H](C)[C@H](NC(=O)[C@H](Cc1ccc(O)cc1)NC(=O)CNC(=O)[C@H](CCSC)NC(=O)[C@H](CCC(=O)O)NC(=O)[C@H](CCC(N)=O)NC(=O)[C@H](Cc1c[nH]c2ccccc12)NC(=O)[C@H](CCCNC(=N)N)NC(=O)[C@H](CCSC)NC(C)=O)C(=O)N[C@@H](Cc1ccccc1)C(=O)N[C@@H](Cc1ccc(O)cc1)C(=O)N1CCC[C@H]1C(=O)N[C@@H](CCCNC(=N)N)C(=O)N[C@@H](CCCCN)C(=O)N[C@H](C)C(=O)N[C@@H](CCCNC(=N)N)C(N)=O [compound 166] (HELM PEPTIDE1{[ac].M.R.W.Q.E.M.G.Y.I.F.Y.P.R.K.[dA].R.[am]}$$$$V2.0) | 78.0
Ac-LKWQEMGYIFYPLRKR-NH2 [compound 113] | 82.8
H-MRWQEMGYIFYPRKER-OH [compound 181] | 58.9
CC[C@H](C)[C@H](NC(=O)[C@@H](C)NC(=O)CNC(=O)[C@H](CCSC)NC(=O)[C@H](CCC(=O)O)NC(=O)[C@H](CCC(N)=O)NC(=O)[C@H](Cc1c[nH]c2ccccc12)NC(=O)[C@H](CCCNC(=N)N)NC(=O)[C@H](CCSC)NC(C)=O)C(=O)N[C@@H](Cc1ccccc1)C(=O)N[C@@H](Cc1ccc(O)cc1)C(=O)N1CCC[C@H]1C(=O)N[C@@H](CCCNC(=N)N)C(=O)N[C@@H](CCCCN)C(=O)N[C@@H](CC(C)C)C(=O)N[C@@H](CCCNC(=N)N)C(N)=O [compound 159] (HELM PEPTIDE1{[ac].M.R.W.Q.E.M.G.[dA].I.F.Y.P.R.K.L.R.[am]}$$$$V2.0) | 87.4
H-RWQEMNYIFYPR-OH [compound 248] | 50.4
CC[C@H](C)[C@H](NC(=O)[C@H](Cc1ccc(O)cc1)NC(=O)CNC(=O)[C@H](CCSC)NC(=O)[C@H](CCC(=O)O)NC(=O)[C@H](CCC(N)=O)NC(=O)[C@H](Cc1c[nH]c2ccccc12)NC(=O)[C@H](CCCNC(=N)N)NC(=O)[C@@H](C)N)C(=O)N[C@@H](Cc1ccccc1)C(=O)N[C@@H](Cc1ccc(O)cc1)C(=O)N1CCC[C@H]1C(=O)N[C@@H](CCCNC(=N)N)C(=O)N[C@@H](CCCCN)C(=O)N[C@@H](CC(C)C)C(=O)N[C@@H](CCCNC(=N)N)C(=O)O [compound 136] (HELM PEPTIDE1{[dA].R.W.Q.E.M.G.Y.I.F.Y.P.R.K.L.R}$$$$V2.0) | 44.2
Ac-MRWQEMGYIFYERKLR-NH2 [compound 193] | 71.2
CC[C@H](C)[C@H](NC(=O)[C@H](Cc1ccc(O)cc1)NC(=O)CNC(=O)[C@H](CCSC)NC(=O)[C@H](CCC(=O)O)NC(=O)[C@H](CCC(N)=O)NC(=O)[C@H](Cc1c[nH]c2ccccc12)NC(=O)[C@H](CCCNC(=N)N)NC(=O)[C@@H](C)NC(C)=O)C(=O)N[C@@H](Cc1ccccc1)C(=O)N[C@@H](Cc1ccc(O)cc1)C(=O)N1CCC[C@H]1C(=O)N[C@@H](CCCNC(=N)N)C(=O)N[C@@H](CCCCN)C(=O)N[C@@H](CC(C)C)C(=O)N[C@@H](CCCNC(=N)N)C(N)=O [compound 152] (HELM PEPTIDE1{[ac].[dA].R.W.Q.E.M.G.Y.I.F.Y.P.R.K.L.R.[am]}$$$$V2.0) | 81.9
CC[C@H](C)[C@H](NC(=O)[C@H](Cc1ccc(O)cc1)NC(=O)CNC(=O)[C@@H](C)NC(=O)[C@H](CCC(=O)O)NC(=O)[C@H](CCC(N)=O)NC(=O)[C@H](Cc1c[nH]c2ccccc12)NC(=O)[C@H](CCCNC(=N)N)NC(=O)[C@@H](N)CCSC)C(=O)N[C@@H](Cc1ccccc1)C(=O)N[C@@H](Cc1ccc(O)cc1)C(=O)N1CCC[C@H]1C(=O)N[C@@H](CCCNC(=N)N)C(=O)N[C@@H](CCCCN)C(=O)N[C@@H](CC(C)C)C(=O)N[C@@H](CCCNC(=N)N)C(=O)O [compound 141] (HELM PEPTIDE1{M.R.W.Q.E.[dA].G.Y.I.F.Y.P.R.K.L.R}$$$$V2.0) | 56.9
H-MRWQEMGYIFYPRKLE-OH [compound 182] | 36.6

— patent publication US11753445B2, “Therapeutic peptides” (COHBAR, INC., priority 2016, dated 2023)
